Tested on: patients suffering hair loss and numbness due to diabetic neuropathy
Experiment: Repetitive topical application of minoxidil in patients suffering hair loss and numbness due to diabetic neuropathy
Type: in vivo
Conditions: twice a day, approximately 1 mL per day, 2-5% minoxidil
Experimental: In an illustrative test with repetitive topical application of minoxidil as a VGIA 120a in patients suffering hair loss and numbness due to diabetic neuropathy, hair growth, nail growth, and temperature perception (restoration of innervation) was achieved on the leg within 2-3 weeks. The minoxidil was applied twice a day in a quantity of approximately 1 mL per day in a concentration of 2-5% minoxidil.

Nc1cc(N2CCCCC2)nc(N)[n+]1[O-] [minoxidil]
2-3 weeks: hair growth achieved on the leg (time) | temperature perception (restoration of innervation) achieved on the leg (time) | nail growth achieved (time) (leg)
